The CheMixHub viscosity set

Test: xn = mol fraction of the nth substance listed

Oc1ccccc1 + CCCCNCCCC
298.16 K, 101 kPa
Conditions | viscosity [mPa·s]
x1 = 0.5012 | 5.109
x1 = 0.6086 | 13.4
x1 = 0.6558 | 20.06
x1 = 0.6934 | 34.09
x1 = 0.7223 | 46.47
x1 = 0.753 | 64.82
x1 = 0.7713 | 74.82
x1 = 0.7925 | 84.1
x1 = 0.8147 | 89.23
x1 = 0.8446 | 82.1
x1 = 0.875 | 62.86
x1 = 0.8948 | 49.73

COCCOCCOC + CC(C)CC(C)(C)C
viscosity [mPa·s], 101.33 kPa
Conditions | x1 = 0.0931 | x1 = 0.1978 | x1 = 0.2916 | x1 = 0.4016 | x1 = 0.4538 | x1 = 0.5881 | x1 = 0.687 | x1 = 0.7926 | x1 = 0.8997
298.15 K | 0.49 | 0.511 | 0.538 | 0.58 | 0.602 | 0.668 | 0.726 | 0.808 | 0.887
303.15 K | 0.46 | 0.481 | 0.507 | 0.545 | 0.564 | 0.624 | 0.677 | 0.741 | 0.821
308.15 K | 0.435 | 0.455 | 0.478 | 0.512 | 0.529 | 0.584 | 0.632 | 0.69 | 0.762
313.15 K | 0.413 | 0.43 | 0.451 | 0.482 | 0.5 | 0.548 | 0.592 | 0.647 | 0.712
318.15 K | 0.389 | 0.405 | 0.425 | 0.453 | 0.468 | 0.512 | 0.553 | 0.601 | –

Oc1ccccc1 + Nc1ccccc1
101 kPa
Conditions | viscosity [mPa·s]
293.15 K, x1 = 0.0786 | 5.09
293.15 K, x1 = 0.1517 | 6.1
293.15 K, x1 = 0.2315 | 7.35
293.15 K, x1 = 0.3105 | 8.89
293.15 K, x1 = 0.3914 | 10.59
293.15 K, x1 = 0.473 | 12.15
293.15 K, x1 = 0.5355 | 13.2
293.15 K, x1 = 0.6225 | 14.18
293.15 K, x1 = 0.693 | 14.47
293.15 K, x1 = 0.7683 | 14.21
293.15 K, x1 = 0.8489 | 13.31
293.15 K, x1 = 0.922 | 12.21
303.15 K, x1 = 0.0741 | 3.66
303.15 K, x1 = 0.1582 | 4.34
303.15 K, x1 = 0.2314 | 5.07
303.15 K, x1 = 0.3142 | 5.95
303.15 K, x1 = 0.3889 | 6.85
303.15 K, x1 = 0.4691 | 7.7
303.15 K, x1 = 0.5374 | 8.36
303.15 K, x1 = 0.6159 | 8.89
303.15 K, x1 = 0.6906 | 9.07
303.15 K, x1 = 0.7667 | 8.89
303.15 K, x1 = 0.8466 | 8.34
303.15 K, x1 = 0.9243 | 7.68
308.1 K, x1 = 0.349 | 5.39
308.1 K, x1 = 0.511 | 6.54
308.1 K, x1 = 0.677 | 7.21
308.1 K, x1 = 0.795 | 6.92
313.15 K, x1 = 0.0741 | 2.74
313.15 K, x1 = 0.1582 | 3.15
313.15 K, x1 = 0.2314 | 3.61
313.15 K, x1 = 0.3142 | 4.1
313.15 K, x1 = 0.3889 | 4.61
313.15 K, x1 = 0.4691 | 5.1
313.15 K, x1 = 0.5374 | 5.45
313.15 K, x1 = 0.6159 | 5.73
313.15 K, x1 = 0.6906 | 5.83
313.15 K, x1 = 0.7667 | 5.73
313.15 K, x1 = 0.8466 | 5.46
313.15 K, x1 = 0.9243 | 5.11

ClC(Cl)C(Cl)Cl + CNc1ccccc1
303 K, 101.33 kPa
Conditions | viscosity [mPa·s]
x2 = 0.1012 | 1.439
x2 = 0.1991 | 1.49
x2 = 0.3016 | 1.541
x2 = 0.4007 | 1.59
x2 = 0.5004 | 1.633
x2 = 0.6007 | 1.66
x2 = 0.7017 | 1.686
x2 = 0.7992 | 1.707
x2 = 0.9013 | 1.73

COC(=O)OC + CCCCCC
Conditions | viscosity [mPa·s]
298.15 K, 101 kPa, x1 = 0.0961 | 0.2912

COCCOCCOC + CO
viscosity [mPa·s], 100 kPa
Conditions | 293.15 K | 298.15 K | 303.15 K
x2 = 0.056 | 1.064 | 0.984 | 0.903
x2 = 0.1076 | 1.05 | 0.97 | 0.89
x2 = 0.202 | 1.015 | 0.94 | 0.863
x2 = 0.2929 | 0.99 | 0.916 | 0.84
x2 = 0.3965 | 0.951 | 0.882 | 0.808
x2 = 0.4979 | 0.909 | 0.843 | 0.775
x2 = 0.5993 | 0.863 | 0.8 | 0.735
x2 = 0.6891 | 0.814 | 0.756 | 0.693
x2 = 0.7967 | 0.747 | 0.697 | 0.641
x2 = 0.8412 | 0.718 | 0.669 | 0.615
x2 = 0.8996 | 0.674 | 0.629 | 0.578
x2 = 0.948 | 0.637 | 0.595 | 0.546

Oc1ccccc1 + C1CCCCC1
viscosity [mPa·s], 303.15 K
Conditions | x2 = 0.0815 | x2 = 0.2049 | x2 = 0.2824 | x2 = 0.4033 | x2 = 0.501 | x2 = 0.5012 | x2 = 0.5905 | x2 = 0.7019 | x2 = 0.7969 | x2 = 0.8953
101 kPa | 5.517 | 3.87 | 3.177 | 2.326 | 1.864 | – | 1.552 | 1.255 | 1.066 | 0.898
101.33 kPa | 5.517 | 3.87 | 3.177 | 2.326 | – | 1.864 | 1.552 | 1.255 | 1.066 | 0.898
